{"source": "patent US20090175872A1", "about": "“Treatment of Conditions Involving Demyelination” (BIOGEN Idec MA Inc., priority 2005, published 2009)", "molecules": {"B1": {"name": "AP-Sp35: human placental alkaline phosphatase with six histidine tag fused to human Sp35 residues 34-532 (protein, listed as Homo sapiens)", "chain": "TGCPPRCECSAQDRAVLCHRKRFVAVPEGIPTETRLLDLGKNRIKTLNQDEFASFPHLEELELNENIVSAVEPGAFNNLFNLRTLGLRSNRLKLIPLGVFTGLSNLTKLDISENKIVILLDYMFQDLYNLKSLEVGDNDLVYISHRAFSGLNSLEQLTLEKCNLTSIPTEALSHLHGLIVLRLRHLNINAIRDYSFKRLYRLKVLEISHWPYLDTMTPNCLYGLNLTSLSITHCNLTAVPYLAVRHLVYLRFLNLSYNPISTIEGSMLHELLRLQEIQLVGGQLAVVEPYAFRGLNYLRVLNVSGNQLTTLEESVFHSVGNLETLILDSNPLACDCRLLWVFRRRWRLNFNRQQPTCATPEFVQGKEFKDFPDVLLPNYFTCRRARIRDRKAQQVFVDEGHTVQFVCRADGDPPPAILWLSPRKHLVSAKSNGRLTVFPDGTLEVRYAQVQDNGTYLCIAANAGGNDSMPAHLHVRSYSPDWPHQPNKTFAFISNQPGE", "modifications": "alkaline phosphatase fusion partner"}, "B2": {"name": "AP-Sp35-Ig: AP-tagged Ig plus stalk domain of Sp35, amino acids 417-532 of SEQ ID NO:2 (protein, listed as Homo sapiens)", "chain": "RARIRDRKAQQVFVDEGHTVQFVCRADGDPPPAILWLSPRKHLVSAKSNGRLTVFPDGTLEVRYAQVQDNGTYLCIAANAGGNDSMPAHLHVRSYSPDWPHQPNKTFAFISNQPGE", "modifications": "AP tag fused"}, "B3": {"name": "AP-Sp35-LRR: AP-tagged LRR domain of Sp35, amino acids 34-417 of SEQ ID NO:2 (protein, listed as Homo sapiens)", "chain": "TGCPPRCECSAQDRAVLCHRKRFVAVPEGIPTETRLLDLGKNRIKTLNQDEFASFPHLEELELNENIVSAVEPGAFNNLFNLRTLGLRSNRLKLIPLGVFTGLSNLTKLDISENKIVILLDYMFQDLYNLKSLEVGDNDLVYISHRAFSGLNSLEQLTLEKCNLTSIPTEALSHLHGLIVLRLRHLNINAIRDYSFKRLYRLKVLEISHWPYLDTMTPNCLYGLNLTSLSITHCNLTAVPYLAVRHLVYLRFLNLSYNPISTIEGSMLHELLRLQEIQLVGGQLAVVEPYAFRGLNYLRVLNVSGNQLTTLEESVFHSVGNLETLILDSNPLACDCRLLWVFRRRWRLNFNRQQPTCATPEFVQGKEFKDFPDVLLPNYFTCRR", "modifications": "AP tag fused"}}, "note": "No end group written: not given here. *: point of attachment. Biotin = O=C1N[C@H]2[C@H](CS[C@H]2CCCCC(=O)*)N1", "data": [{"biological_target": "T1, human ErbB2 (Homo sapiens, UniProt P04626)", "T1 construct": "expressed in transfected cells; host or cells: CHO cells, transient transfection with Fugene 6, assayed after 48 hours", "assay": "AP-Sp35 binding to ErbB2-transfected CHO cells", "settings": "FIG. 17A; read-out: EC50 of binding to CHO cells expressing ErbB2", "protocol": "(§1) ErbB2 is a member of the type I family of transmembrane receptor tyrosine kinases. The family comprises four members: epidermal growth factor receptor (EGFR or ErbB1), ErB2 (HER2 or neu), ErbB3 and ErbB4. Oligodendrocyte differentiation is positively regulated by the ErbB2 receptor tyrosine kinase. To examine the potential interaction between Sp35 and ErB2, an N-terminal AP-tagged human Sp35 protein was tested for binding to human ErbB2-transfected Chinese hamster ovary (CHO) cells.\n(§2) 90% confluent CHO cells were transfected with various combinations of human ErbB2 vector expression plasmid using Fugene 6 reagents (Roche). After 48 hours, the transfected cells were washed with HBH (Hank's balanced salt solution, 1 mg/ml BSA, 20 mM HEPES (pH 7.0)) and incubated for 1.5 hours at 23° C. or […] with 4 μg/ml of AP-Sp35 (human placental alkaline phosphotase (AP) with an N-terminal six histidine tag, fused to the C-terminus of human Sp35 (residues 34-532), as described in Mi et al., Nat. Neurosci. 7:221-228 (2004)) or control AP-protein in HBH. Bound AP-Sp35 was detected directly or following detergent lysis of the cells by ELISA and enzymatic activity was quantified with 4-NPP as described in Mi et al. Nat. Neurosci. 7:221-228 (2004).\n(§3) In order to identify the Sp35 domain that binds ErbB2, soluble truncated forms of AP-Sp35 were tested for binding. Both the LRR domain of Sp35 (amino acids 34-417 of SEQ ID NO:2) (AP-Sp35-LRR) and the extracellular domain of Sp35 (amino acids 34-532 of SEQ ID NO:2) (AP-Sp35) bound to ErbB2 expressed in CHO cells. […] FIGS. 17B and 17C.", "units": {"EC50": "nM"}, "values": [{"molecule": "B1", "EC50": 3}]}, {"biological_target": "T1, human ErbB2", "assay": "AP-Sp35 binding to ErbB2-transfected CHO cells", "settings": "FIGS. 17B and 17C", "protocol": "as §1, §2, §3", "values": [{"molecule": "B1", "binding to ErbB2 expressed in CHO cells": "bound"}, {"molecule": "B2", "binding to ErbB2 expressed in CHO cells": "no detectable binding"}, {"molecule": "B3", "binding to ErbB2 expressed in CHO cells": "bound"}]}, {"system": "co-cultures of dorsal root ganglion (DRG) neurons and oligodendrocytes", "assay": "Myelination in co-cultures of DRG neurons and oligodendrocytes", "type": "cell-based, rat", "settings": "4-week-old treated co-cultures, anti-MBP antibody", "protocol": "The role of Sp35 in myelination was examined in vitro by treating co-cultures of dorsal root ganglion (DRG) neurons and oligodendrocytes with Sp35-Fc and testing for myelination by immunohistochemistry and electron microscopy. For these studies, it was necessary to first generate primary cultures of DRG neurons and of oligodendrocytes.\nFemale Long Evans rat E14-E17 embryonic dorsal root ganglia were cultured as described by Plant et al., J. Neurosci. 22:6083-91 (2002). Dissected DRGs were plated on poly-L-lysine-coated cover slips (100 μg/ml) for 2 weeks in the presence of fluorodeoxyuridine for days 2-6 and days 8-11 in NLA medium containing 1×B27, 100 ng/ml NGF (Invitrogen).\nA2B5^+ oligodendrocytes were prepared as described in Example 1, and were harvested by trypsinization.\nFor coculture studies, A2B5^+ oligodendrocytes were added to DRG neuron drop cultures in the presence or absence of 10 μg/ml Sp35-Fc. The culture medium (Neurobasal medium supplemented with B27 and 100 ng/ml NGF) was changed, and fresh Sp35-Fc was added to the cells every 3 d. To identify changes in myelination, 2-week-old cultures were stained by immunohistochemical staining (“IHC”) for neurofilaments with anti-βIII-tubulin antibody to identify axons, or anti-MBP antibody to identify oligodendrocytes., and 4-week-old cultures were subjected to SDS-PAGE followed by western blot analyses to quantify the MBP. In selected examples, cells were fixed for electron microscopy studies by adding 2.5% gluteraldehyde directly onto the cover slips. Myelinated axons in the 2-week-old cultures were quantified by counting the number of myelinated internode bundles that were derived from single MBP^+ oligodendrocytes. Samples were analyzed in duplicate. Error bars denote individual determinations. P values in all studies were determined using a one-way analysis of variance. […]\nWe performed experiments to address the relative contributions to the myelination process of Sp35 in DRG neurons as compared to oligodendrocytes. We infected DRG neurons, oligodendrocytes and co-cultures (prepared as described in Example 5) with the FL-Sp35 and DN-Sp35 lentiviral vectors described in Example 1 and performed immunohistochemical straining for myelinated MBP^+ cells after two weeks. A 2-fold increase in MBP levels in co-cultures where both cells express DN-Sp35 and a 2-fold decrease in MBP levels in co-cultures where both cells express FL-Sp35 was observed (FIG. 10G).", "values": [{"molecule": "Ac-CLSPEKVC (also: cyclic, type not given here)", "expression of MBP (western blot)": "no increase in MBP"}, {"molecule": "Ac-CLSPRKHC (Ac-CLSPRKHC-NH2; also: cyclic, type not given here)", "expression of MBP (western blot)": "increased expression of MBP"}, {"molecule": "Biotin-GSGCKHSPLRC (cysteine pairing not given here)", "expression of MBP (western blot)": "no increase in MBP"}, {"molecule": "Biotin-GSGCLSPEKVC (cysteine pairing not given here)", "expression of MBP (western blot)": "no increase in MBP"}, {"molecule": "Biotin-GSGCLSPRKHC (cysteine pairing not given here)", "expression of MBP (western blot)": "increased expression of MBP"}]}]}
